Results taken from patent US20260151516A1, “NEW PET TRACER FOR IMAGING OF THE FUNCTIONAL HEPATIC RESERVE” (Medizinische Universität Innsbruck, priority 2022, published 2026).

Experiments:
[1] = Ligand stability in human blood serum (radio-HPLC); assay type: in vitro ADME; details: 37° C., 120 min
Method: Ligand stability in human blood serum (n=2) and PBS (n=1) was determined for different time points (2 min, 30 min, 60 min, 120 min). Therefore, approx. 5 MBq of radioligand was added to 1 mL of fresh human serum or PBS and incubated at 37° C. At each given time point 100 μL of the mixture were transferred to a 1.5 mL Eppendorf tube containing 100 μL of acetonitrile. The vial was vortexed and centrifuged for 2 min at 14,000 rpm before 100 μL of the supernatant were diluted with 200 μL of water and injected into analytical radio-HPLC. The PBS solution was directly injected into the radio-HPLC. Ligand stability was determined by integrating the areas of the signals in the radio chromatogram in relation to the signal of the intact ligand.

human serum = experiment: Protein binding in fresh human serum (Sephadex MicroSpin G-50 columns); assay type: in vitro ADME; details: 37° C., 30 min
Method: Protein binding was determined for different time points (2 min, 30 min, 60 min, 120 min) in triplicates using Sephadex MicroSpin G-50 columns (GE-Healthcare, Chicago, Illinois, USA). The columns were spun initially at 20,000 rcf for 1 min to remove the storage buffer. Then approx. 5 MBq of radioligand was added to 1 mL of fresh human serum and incubated at 37° C. At each given timepoint 25 μL of the mixture was loaded on to the column, which was then spun at 20,000 rcf for 1 min. The activity content on the column (free radioligand) and in the filtrate (protein bound fraction) was quantified in a γ-counter.

[2] = Biodistribution studies incl. blocking experiments; assay type: in vivo; details: healthy BALB/c mice
Method: For biodistribution studies 6 week old female BALB/c mice (n=3) were injected with 0.1 nmol (100 μL, approx. 1 MBq) of labelled compound via the lateral tail vein and sacrificed after 10, 30, or 60 min by cervical dislocation. The mice were dissected, blood and organs (spleen, pancreas, stomach, intestine, liver, kidney, heart, lung, muscle, and bone) were weighed, and their activity measured in a γ-counter. For blocking experiments, mice were co-injected with 100 μL of a 277 mM Galactose/PBS solution. In case of [^68Ga]Ga-TRAP-GalNAc a 277 mM N-Acetylgalactose solution was used.

[3] = Partition coefficient (log D), n-Octanol/PBS; assay type: physicochemical
Method: The vials were vortexed for 5 min at 1,500 rpm and then centrifuged for 5 min at 20,000 rcf (Eppendorf Centrifuge 5424).

[4] = 30 min p.i., blocking with 277 mM N-Acetylgalactose

CC(=O)N[C@H]1[C@H](OCCOCCOCCn2cc(CNC(=O)CCP(=O)([O-])CN3CCN(CP(=O)([O-])CCC(=O)NCc4cn(CCOCCOCCO[C@@H]5O[C@H](CO)[C@H](O)[C@H](O)[C@H]5NC(C)=O)nn4)CCN(CP(=O)([O-])CCC(=O)NCc4cn(CCOCCOCCO[C@@H]5O[C@H](CO)[C@H](O)[C@H](O)[C@H]5NC(C)=O)nn4)CC3)nn2)O[C@H](CO)[C@H](O)[C@@H]1O.[68Ga+3] [[^68Ga]Ga-TRAP-GalNAc]
Serum stability (% of intact ligand) [1]: high serum stability
Serum stability (% of intact ligand) ([1]; listed as [^68Ga]Ga-TRAP-GalNAC): 99.7 ± 0.1%
Protein binding (%) (human serum): 24.3 ± 5.2%
Liver uptake compared with [^99mTc]Tc-GSA [2]: comparable
Biodistribution Blood ([2]; 10 min p.i.): 0.64 ± 0.04 % ID/g
Biodistribution Femur ([2]; 10 min p.i.): 0.27 ± 0.04 % ID/g
Biodistribution Heart ([2]; 10 min p.i.): 0.69 ± 0.12 % ID/g
Biodistribution Intestine ([2]; 10 min p.i.): 0.63 ± 0.06 % ID/g
Biodistribution Kidneys ([2]; 10 min p.i.): 1.43 ± 0.10 % ID/g
Biodistribution Liver ([2]; 10 min p.i.): 69.1 ± 4.18 % ID/g
Biodistribution Lung ([2]; 10 min p.i.): 0.92 ± 0.11 % ID/g
Biodistribution Muscle ([2]; 10 min p.i.): 0.55 ± 0.03 % ID/g
Biodistribution Pancreas ([2]; 10 min p.i.): 0.92 ± 0.17 % ID/g
Biodistribution Spleen ([2]; 10 min p.i.): 0.24 ± 0.05 % ID/g
Biodistribution Stomach ([2]; 10 min p.i.): 0.86 ± 0.15 % ID/g
Biodistribution Blood ([2]; 30 min p.i.): 0.57 ± 0.09 % ID/g
Biodistribution Femur ([2]; 30 min p.i.): 0.47 ± 0.12 % ID/g
Biodistribution Heart ([2]; 30 min p.i.): 0.73 ± 0.02 % ID/g
Biodistribution Intestine ([2]; 30 min p.i.): 4.16 ± 0.35 % ID/g
Biodistribution Kidneys ([2]; 30 min p.i.): 1.68 ± 0.30 % ID/g
Biodistribution Liver ([2]; 30 min p.i.): 63.88 ± 2.23 % ID/g
Biodistribution Lung ([2]; 30 min p.i.): 1.02 ± 0.06 % ID/g
Biodistribution Muscle ([2]; 30 min p.i.): 0.74 ± 0.08 % ID/g
Biodistribution Pancreas ([2]; 30 min p.i.): 1.50 ± 0.49 % ID/g
Biodistribution Spleen ([2]; 30 min p.i.): 0.20 ± 0.02 % ID/g
Biodistribution Stomach ([2]; 30 min p.i.): 1.60 ± 0.56 % ID/g
Biodistribution Blood [2, 4]: 0.80 ± 0.04 % ID/g
Biodistribution Femur [2, 4]: 0.32 ± 0.12 % ID/g
Biodistribution Heart [2, 4]: 0.31 ± 0.02 % ID/g
Biodistribution Intestine [2, 4]: 0.71 ± 0.06 % ID/g
Biodistribution Kidneys [2, 4]: 2.86 ± 0.21 % ID/g
Biodistribution Liver [2, 4]: 10.98 ± 0.44 % ID/g
Biodistribution Lung [2, 4]: 0.73 ± 0.02 % ID/g
Biodistribution Muscle [2, 4]: 0.28 ± 0.05 % ID/g
Biodistribution Pancreas [2, 4]: 0.39 ± 0.04 % ID/g
Biodistribution Spleen [2, 4]: 0.24 ± 0.01 % ID/g
Biodistribution Stomach [2, 4]: 0.53 ± 0.06 % ID/g
Biodistribution Blood ([2]; 60 min p.i.): 0.23 ± 0.02 % ID/g
Biodistribution Femur ([2]; 60 min p.i.): 0.49 ± 0.11 % ID/g
Biodistribution Heart ([2]; 60 min p.i.): 0.82 ± 0.27 % ID/g
Biodistribution Intestine ([2]; 60 min p.i.): 4.53 ± 0.35 % ID/g
Biodistribution Kidneys ([2]; 60 min p.i.): 0.79 ± 0.07 % ID/g
Biodistribution Liver ([2]; 60 min p.i.): 54.20 ± 7.95 % ID/g
Biodistribution Lung ([2]; 60 min p.i.): 0.71 ± 0.10 % ID/g
Biodistribution Muscle ([2]; 60 min p.i.): 0.57 ± 0.01 % ID/g
Biodistribution Pancreas ([2]; 60 min p.i.): 0.76 ± 0.11 % ID/g
Biodistribution Spleen ([2]; 60 min p.i.): 0.17 ± 0.05 % ID/g
Biodistribution Stomach ([2]; 60 min p.i.): 0.54 ± 0.02 % ID/g
logD [3]: −4.2±0.08

O=C(CCP(=O)([O-])CN1CCN(CP(=O)([O-])CCC(=O)NCc2cn(CCOCCOCCO[C@@H]3O[C@H](CO)[C@@H](O)[C@H](O)[C@H]3O)nn2)CCN(CP(=O)([O-])CCC(=O)NCc2cn(CCOCCOCCO[C@@H]3O[C@H](CO)[C@@H](O)[C@H](O)[C@H]3O)nn2)CC1)NCc1cn(CCOCCOCCO[C@@H]2O[C@H](CO)[C@@H](O)[C@H](O)[C@H]2O)nn1.[68Ga+3] [[^68Ga]Ga-TRAP-Gluco, reference compound]
Protein binding (%) (human serum): 3.3 ± 2.0%
Biodistribution Blood ([2]; 10 min p.i.): 4.53 ± 0.52 % ID/g
Biodistribution Femur ([2]; 10 min p.i.): 0.86 ± 0.10 % ID/g
Biodistribution Intestine ([2]; 10 min p.i.): 1.10 ± 0.12 % ID/g
Biodistribution Kidneys ([2]; 10 min p.i.): 10.20 ± 1.23 % ID/g
Biodistribution Liver ([2]; 10 min p.i.): 1.06 ± 0.07 % ID/g
Biodistribution Lung ([2]; 10 min p.i.): 2.84 ± 0.13 % ID/g
Biodistribution Muscle ([2]; 10 min p.i.): 0.99 ± 0.10 % ID/g
Biodistribution Pancreas ([2]; 10 min p.i.): 1.03 ± 0.08 % ID/g
Biodistribution Spleen ([2]; 10 min p.i.): 0.94 ± 0.03 % ID/g
Biodistribution Stomach ([2]; 10 min p.i.): 1.59 ± 0.44 % ID/g
Biodistribution Blood ([2]; 30 min p.i.): 1.40 ± 0.50 % ID/g
Biodistribution Femur ([2]; 30 min p.i.): 0.15 ± 0.14 % ID/g
Biodistribution Heart ([2]; 30 min p.i.): 1.07 ± 0.34 % ID/g
Biodistribution Intestine ([2]; 30 min p.i.): 0.57 ± 0.20 % ID/g
Biodistribution Kidneys ([2]; 30 min p.i.): 3.95 ± 1.12 % ID/g
Biodistribution Liver ([2]; 30 min p.i.): 0.51 ± 0.17 % ID/g
Biodistribution Lung ([2]; 30 min p.i.): 0.32 ± 0.10 % ID/g
Biodistribution Muscle ([2]; 30 min p.i.): 0.35 ± 0.12 % ID/g
Biodistribution Pancreas ([2]; 30 min p.i.): 0.47 ± 0.18 % ID/g
Biodistribution Spleen ([2]; 30 min p.i.): 0.41 ± 0.13 % ID/g
Biodistribution Stomach ([2]; 30 min p.i.): 0.61 ± 0.19 % ID/g
Biodistribution Blood ([2]; 60 min p.i.): 0.16 ± 0.06 % ID/g
Biodistribution Femur ([2]; 60 min p.i.): 0.08 ± 0.03 % ID/g
Biodistribution Heart ([2]; 60 min p.i.): 0.08 ± 0.02 % ID/g
Biodistribution Intestine ([2]; 60 min p.i.): 0.14 ± 0.05 % ID/g
Biodistribution Kidneys ([2]; 60 min p.i.): 1.87 ± 0.33 % ID/g
Biodistribution Liver ([2]; 60 min p.i.): 0.15 ± 0.02 % ID/g
Biodistribution Lung ([2]; 60 min p.i.): 0.31 ± 0.03 % ID/g
Biodistribution Muscle ([2]; 60 min p.i.): 0.05 ± 0.01 % ID/g
Biodistribution Pancreas ([2]; 60 min p.i.): 0.09 ± 0.03 % ID/g
Biodistribution Spleen ([2]; 60 min p.i.): 0.11 ± 0.01 % ID/g
Biodistribution Stomach ([2]; 60 min p.i.): 0.09 ± 0.03 % ID/g
logD [3]: −3.8 ± 0.08
